Experimental data reported in patent US6297274A, “Nonpeptide endothelin antagonists with increased water solubility” (priority 1998, dated 2001).
Counter-ions that a name gives are not always drawn. Like-named read-outs stand apart in the source and are kept apart here.

Key:
human ETA R = target: T1, human ETA R (Homo sapiens, UniProt P25101); test: biochemical; format: binding; settings: read-out: HERBA-A IC50
T1 sequence (P25101 21-427): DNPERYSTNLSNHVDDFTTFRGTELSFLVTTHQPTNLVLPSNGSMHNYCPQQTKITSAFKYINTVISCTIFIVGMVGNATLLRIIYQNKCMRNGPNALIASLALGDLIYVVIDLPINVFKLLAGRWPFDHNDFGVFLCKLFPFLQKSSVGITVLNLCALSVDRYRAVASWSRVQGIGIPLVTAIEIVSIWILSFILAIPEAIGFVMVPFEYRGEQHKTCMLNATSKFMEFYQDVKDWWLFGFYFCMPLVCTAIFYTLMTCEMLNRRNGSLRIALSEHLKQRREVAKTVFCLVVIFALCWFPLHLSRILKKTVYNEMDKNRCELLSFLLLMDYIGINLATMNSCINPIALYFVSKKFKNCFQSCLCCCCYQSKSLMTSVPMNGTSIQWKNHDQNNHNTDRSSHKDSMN
Description: (§1) The following cultured cells were used in binding experiments: CHO-K1 cells expressing recombinant human ETB R (HERBA B), or Ltk-cells expressing human ETA R (HERBA A). […] Membranes were prepared from cultured cells by lysing cells in cold lysis buffer (5 mM HEPES, 2 mM EDTA, pH 7.4) and homogenizing with a Dounce "A" homogenizer. […] Radioligand and competing ligands were prepared in binding buffer containing 20 mM Tris, 2 mM EDTA, and 0.1% BSA.
(§2) The assay was terminated by filtration over Whatman GF/B filters that were presoaked with 50 mM Tris, pH 7.4, containing 0.2% BSA and 100 μM bacitracin. […] binding was defined as total binding minus nonspecific binding.

recombinant human ETB R = target: T2, recombinant human ETB R (Homo sapiens, UniProt P24530); test: biochemical; format: binding; settings: read-out: HERBA-B IC50
T2 sequence (P24530 27-442): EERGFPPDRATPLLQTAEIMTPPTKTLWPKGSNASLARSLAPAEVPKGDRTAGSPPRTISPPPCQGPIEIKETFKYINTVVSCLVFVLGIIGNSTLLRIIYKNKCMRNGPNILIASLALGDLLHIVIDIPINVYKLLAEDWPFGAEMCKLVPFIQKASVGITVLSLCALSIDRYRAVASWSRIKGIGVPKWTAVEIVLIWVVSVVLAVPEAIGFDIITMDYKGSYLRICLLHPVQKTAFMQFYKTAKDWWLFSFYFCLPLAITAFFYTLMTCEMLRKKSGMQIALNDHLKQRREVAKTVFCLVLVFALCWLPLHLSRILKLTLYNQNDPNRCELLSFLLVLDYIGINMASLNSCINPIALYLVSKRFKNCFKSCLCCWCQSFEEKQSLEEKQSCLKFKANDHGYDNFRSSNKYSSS
Description: as §1, §2

[1] = target: T3, ET-1 stimulated vasoconstriction, rabbit femoral artery (Oryctolagus cuniculus, UniProt A5A8K3); settings: read-out: VERA-A pA2 (converted)
T3 sequence (A5A8K3 21-427): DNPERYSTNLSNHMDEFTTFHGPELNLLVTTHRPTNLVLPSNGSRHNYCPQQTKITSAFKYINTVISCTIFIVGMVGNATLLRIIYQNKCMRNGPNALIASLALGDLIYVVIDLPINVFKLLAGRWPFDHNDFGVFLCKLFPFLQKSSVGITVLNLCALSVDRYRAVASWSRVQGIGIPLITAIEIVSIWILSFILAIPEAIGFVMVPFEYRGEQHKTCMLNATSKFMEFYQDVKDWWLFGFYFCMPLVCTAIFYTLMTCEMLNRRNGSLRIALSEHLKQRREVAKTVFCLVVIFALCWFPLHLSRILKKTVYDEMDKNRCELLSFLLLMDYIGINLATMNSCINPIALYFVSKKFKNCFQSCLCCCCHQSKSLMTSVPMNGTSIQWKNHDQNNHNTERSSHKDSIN
From the text: In vitro and in vivo studies with a series of hexapeptide endothelin antagonists. J. Cardiovasc. […] The data are presented as pA2 values.

[2] = test system: rat hypoxia model of hypertension; settings: cited from earlier work
[3] = test system: cerebral hemisphere of cats following middle cerebral artery occlusion; settings: IV; cited from earlier work
physchem = settings: water
[4] = test system: ischemic brain injury in rats; settings: oral; cited from earlier work
[5] = human cloned receptor ETA, [125I]-ET-1 (40 pM), 2 hours, 37 °C
[6] = human cloned receptor ETB, [125I]-ET-1 (40 pM), 2 hours, 37 °C

Work on `COc1ccc(C(=O)C(Cc2cccc(CN(C)C)c2)=C(C(=O)O)c2cc(OC)c3c(c2)OCO3)cc1` [sodium salt] yielded an IC50 (human ETA R) of 2 nM and an IC50 (recombinant human ETB R) of 300 nM.

Molecule `COc1ccc(C2(O)OC(=O)C(c3ccc4c(c3)OCO4)=C2Cc2cc(OC)c(OC)c(OC)c2)c(OCCCN(C)C)c1` (stereo not shown) [Example 38, 3Benzo[1,3]dioxol-5-yl-5-[2-(3-dimethylamino-propoxy)-4-methoxy-phenyl]-5-hydroxy-4-(3,4,5-trimethoxy-benzyl)-5H-furan-2-one] has an IC50 (human ETA R; [5]) of 1 nM, an IC50 (recombinant human ETB R; [6]) of 800 nM and a Kb [1] of 100 nM.

For `COc1ccc(C2(O)OC(=O)C(c3ccc4c(c3)OCO4)=C2Cc2cc(OC)c(OC)c(OC)c2)cc1` (stereo not shown) [PD 156707], the “pulmonary vascular resistance and pulmonary arterial pressure” value [2] is listed as “provide protection in a rat hypoxia model of hypertension by lowering the increase in pulmonary vascular resistance and pulmonary arterial pressure” and the “volume of ischemic damage in the cerebral hemisphere” value [3] is listed as “significantly reduced”.

In the case of `COc1ccc(C2(O)OC(=O)C(c3ccc4c(c3)OCO4)=C2Cc2cc(OC)c(OC)c(OCCN3CCOCC3)c2)cc1` (stereo not shown) [Example 37, 3-Benzo[1,3]dioxol-5-yl-4-[3,4-dimethoxy-5-(2-morpholin-4-yl-ethoxy)-benzyl]-5-hydroxy-(4-methoxy-phenyl)-5-furan-2-one 2-hydroxyethanesulfonate], the solubility (physchem) is reported as greater than 25 mg/mL.

`COc1cc(CC2=C(c3ccc4c(c3)OCO4)C(=O)OC2(O)c2ccc(OCCCN(C)C)cc2)cc(OC)c1OC` (stereo not shown) [Example 29, 3-Benzo[1,3]dioxol-5-yl-5-[4-(3-dimethylamino-propoxy)-phenyl]-5-hydroxy-4-(3,4,5-trimethoxy-benzyl)-5H-furan-2-one] gave an IC50 (human ETA R; [5]) of 40 nM and an IC50 (recombinant human ETB R; [6]) of 17000 nM.

Molecule `COc1ccc(C2(O)OC(=O)C(c3ccc4c(c3)OCO4)=C2Cc2cc(OC)c(OCCN3CCOCC3)c(OCCN3CCOCC3)c2)cc1` (stereo not shown) [Example 9, 3-Benzo[1,3]dioxol-5-yl-5-hydroxy-4-[3-methoxy-4,5-bis-(2-morpholin-4-yl-ethoxy)-benzyl]-5(4-methoxy-phenyl)-5H-furan-2-one 2-hydroxyethanesulfonate] has an IC50 (human ETA R; [5]) of 180 nM and an IC50 (recombinant human ETB R; [6]) greater than 25000 nM.

For `COc1ccc(C2(O)OC(=O)C(c3ccc4c(c3)OCO4)=C2Cc2cc(OC)c(OC)c(OCCN(C)C)c2)cc1` (stereo not shown) [Example 11, 3-Benzo[1,3]dioxyl-5-yl-4-[3-(2-dimethylamino-ethoxy)-4,5-dimethoxy-benzyl]-5-hydroxy-5-(4-methoxy-phenyl)-5H-furan-2-one 2-hydroxyethanesulfonate], the solubility (physchem) was greater than 25 mg/mL.

Work on `COc1ccc(C2(O)OC(=O)C(c3cc(OC)c4c(c3)OCO4)=C2Cc2cccc(CN(C)C)c2)cc1` (stereo not shown) [Example 35, 4-(3-Dimethylaminomethyl-benzyl)-5-hydroxy-3-(7-methoxy-benzo[1,3]dioxol-5-yl)-5-(4-methoxy-phenyl)-5H-furan-2-one 2-hydroxyethanesulfonate] yielded an IC50 (human ETA R; [5]) of 1 nM and an IC50 (recombinant human ETB R; [6]) of 210 nM.

With `COc1ccc(C2(O)OC(=O)C(c3cc(OC)cc(OC)c3)=C2Cc2cc(OC)c(OC)c(OCCCN3CCN(C)CC3)c2)cc1` (stereo not shown) [Example 17, 4-{3,4-Dimethoxy-5-[3-(4-methyl-piperazzin-1-yl)-propoxy]-benzyl}-3-(3,5-dimethoxy-phenyl)-5-hydroxy-5-(4-methoxy-phenyl)-5-hydroxy-5-(4-methoxy-phenyl)-5H-furan-2-one] the IC50 (human ETA R; [5]) was 12.5 nM and the IC50 (recombinant human ETB R; [6]) was greater than 2500 nM.

In the case of `CCCOc1ccc2c(c1)[C@@H](c1ccc(OC)cc1OCCO)[C@H](C(=O)O)[C@H]2c1ccc2c(c1)OCO2` [SB 217242], the “reduction of ischemic brain injury” value [4] is listed as “Reduction of ischemic brain injury in rats was also demonstrated”.

In the case of `COc1ccc(C2(O)OC(=O)C(c3ccc4c(c3)OCO4)=C2Cc2cccc(CN(C)C)c2)cc1` (stereo not shown) [Example 33, 3-Benzo[1,3]dioxol-5-yl-4-(3-dimethylaminomethyl-benzyl)-5-hydroxy-5-(4-methoxy-phenyl)-5H-furan-2-one 2-hydroxyethanesulfonate], the IC50 (human ETA R; [5]) is reported as 1.2 nM, the IC50 (recombinant human ETB R; [6]) is reported as 470 nM and the Kb ([1]; ET-1 stimulated vasoconstriction, rabbit femoral artery) is reported as 200 nM.

For `COc1cc(CC2=C(c3ccc4c(c3)OCO4)C(=O)OC2(O)c2ccc(OCCCN(C)C)cc2)cc(OC)c1OC` (stereo not shown) [Example 30, 3-Benzo[1,3]dioxol-5-yl-5-[4-(3-dimethylamino-propoxy)-phenyl]-5-hydroxy-4-(3,4,5-trimethoxy-benzyl)-5H-furan-2-one 2-hydroxyethanesulfonate], the IC50 (human ETA R; [5]) was 180 nM and the IC50 (recombinant human ETB R; [6]) was greater than 2500 nM.

Molecule `COc1cc(CC2=C(c3ccc4c(c3)OCO4)C(=O)OC2(O)c2ccc(OCCN3CCOCC3)cc2)cc(OC)c1OC` (stereo not shown) [Example 27, 3-Benzo[1,3]dioxol-5-yl-5-hydroxy-5-[4-(2-morpholin-4-ethoxy)-phenyl]-4-(3,4,5-trimethoxy-benzyl)-5H-furan-2-one] has an IC50 (human ETA R; [5]) of 14 nM and an IC50 (recombinant human ETB R; [6]) of 3350 nM.

For `COc1ccc(C2(O)OC(=O)C(c3ccc4c(c3)OCO4)=C2Cc2cc(OC)c(OC)c(OCC(=O)NCCN3CCOCC3)c2)cc1` (stereo not shown) [Example 3, 2-{5-[4-Benzo[1,3]dioxol-5-yl-2-hydroxy-2-(4-methoxy-phenyl)-5-oxo-2,5-dihydro-furan-3-ylmethyl]-2,3-dimethoxy-phenoxy}-N-(2-morpholin-4-yl-ethyl)-acetamide], the IC50 (human ETA R; [5]) was 2 nM and the IC50 (recombinant human ETB R; [6]) was greater than 2500 nM.

`COc1ccc(C2(O)OC(=O)C(c3ccc4c(c3)OCO4)=C2Cc2cc(OC)c(OC)c(OCCCS(=O)(=O)O)c2)cc1` (stereo not shown) [Example 26] showed a solubility (physchem) greater than 80 mg/mL.

`COc1ccc(C2(O)OC(=O)C(c3ccc4c(c3)OCO4)=C2Cc2cc(OC)c(OC)c(OCC(=O)NCCN3CCOCC3)c2)cc1` (stereo not shown) [Example 4] gave an IC50 (human ETA R; [5]) of 1 nM and a Kb [1] of 100 nM.

In the case of `COc1ccc(C2(O)OC(=O)C(c3cc(OC)c4c(c3)OCO4)=C2Cc2cccc(CN(C)C)c2)cc1` (stereo not shown) [Example 34, 4-(3-Dimethylaminomethyl-benzyl)-5-hydroxy-3-(7-methoxy-benzo[1,3]dioxol-5-yl)-5-(4-methoxy-phenyl)-5H-furan-2-one], the IC50 (human ETA R; [5]) is reported as 0.6 nM and the IC50 (recombinant human ETB R; [6]) is reported as 110 nM.

`CNc1cccc(CC2=C(c3ccc4c(c3)OCO4)C(=O)OC2(O)c2ccc(OC)cc2)c1` (stereo not shown) [Example 31, 3-Benzo[1,3]dioxol-5-yl-5-hydroxy-5-(4-methoxy-phenyl)-4-(3-methylamino-benzyl)-5H-furan-2-one] gave an IC50 (human ETA R; [5]) of 2 nM and an IC50 (recombinant human ETB R; [6]) of 2700 nM.

With `COc1ccc(C2(O)OC(=O)C(c3cc(OC)cc(OC)c3)=C2Cc2cc(OC)c(OC)c(OCCN(C)C)c2)cc1` (stereo not shown) [Example 16] the IC50 (human ETA R; [5]) was 2 nM and the IC50 (recombinant human ETB R; [6]) was greater than 2500 nM.

For `COc1ccc(C2(O)OC(=O)C(c3ccc4c(c3)OCO4)=C2Cc2cccc(CN(C)C)c2)cc1` (stereo not shown) [Example 32], the IC50 (human ETA R; [5]) was 4 nM and the IC50 (recombinant human ETB R; [6]) was 900 nM.

With `COc1cc(CC2=C(c3ccc4c(c3)OCO4)C(=O)OC2(O)c2ccc(OCCN3CCOCC3)cc2)cc(OC)c1OC` (stereo not shown) [Example 28, 3-Benzo[1,3]dioxol-5-yl-5-hydroxy-5-[4-(2-morpholin-4-yl-ethoxy)-phenyl]-4-(3,4,5-trimethoxy-benzyl)-5H-furan-2-one 2-hydroxyethanesulfonate] the IC50 (human ETA R) was 12 nM and the IC50 (recombinant human ETB R; [6]) was 4100 nM.
